According to patent US7585851B2, “3′-prodrugs of 2′-deoxy-β-L-nucleosides” (priority 2000, dated 2009):

Experiments:
[1] = system: human hepatoma cell line 2.2.15; assay: Cytotoxicity in 2.2.15 cells; settings: 2.2.15 cells; 50% inhibition of neutral red dye uptake (Table 25)
[2] = system: human erythroid burst-forming (BFU-E) progenitor cells; format: cell-based; settings: human bone marrow clonogenic assay
Text: (§1) In particular, anemia and neutropenia are the most common drug-related clinical toxicities associated with the anti-HIV drug zidovudine (ZDV).

[3] = system: human granulocyte-macrophage colony-forming (CFU-GM) progenitor cells; format: cell-based; settings: human bone marrow clonogenic assay
Text: as §1

[4] = Cytotoxicity in 2.2.15 cells; settings: human, 2.2.15 hepatoma cells
HBV = assay: Anti-HBV activity in HBV-expressing 2.2.15 cells (HBV DNA reduction)

SMILES | CC50 [1] | IC50 [2] | IC50 [3] | CC50 [4] | S.I. (CC50/EC90) (HBV; 2.2.15 cells) | EC90 (HBV; Hepatitis B virus)
Cc1cn([C@@H]2C[C@@H](O)[C@H](CO)O2)c(=O)[nH]c1=O [L-dT, β-L-2′-deoxythymidine] | 3020 µM |  |  |  |  | 
Nc1ccn([C@@H]2CS[C@H](CO)O2)c(=O)n1 [lamivudine, (−)-enantiomer of cis-2-hydroxymethyl-5-(cytosin-1-yl)-1,3-oxathiolane, reference compound] |  | > 10 µM | > 10 µM | > 1000 µM | >5,000 | 0.18 ± 0.007 µM
